Legend:
bedstraw = assay: Test B pre/postemergence bedstraw; format: in vivo, Galium aparine; conditions: Preemergence
How it was run: (§1)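 Herbicidal effect was estimated by eye on a ten-point control scale after plants spent twelve to sixteen days in a greenhouse following soil or foliar treatment. Foliar sprays targeted plants at one to four leaves; all doses were formulated in a non-phytotoxic solvent with surfactant.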

blackgrass = assay: Test B pre/postemergence blackgrass; format: in vivo, Alopecurus myosuroides
How it was run: as §1

surinam grass = assay: Test B pre/postemergence surinam grass; format: in vivo, Brachiaria decumbens
How it was run: as §1

cocklebur = assay: Test B pre/postemergence cocklebur; format: in vivo, Xanthium strumarium
How it was run: as §1

corn = assay: Test B pre/postemergence corn; format: in vivo, Zea mays
How it was run: as §1

crabgrass = assay: Test B pre/postemergence crabgrass; format: in vivo, Digitaria sanguinalis
How it was run: as §1

giant foxtail = assay: Test B pre/postemergence giant foxtail; format: in vivo, Setaria faberii
How it was run: as §1

morningglory = assay: Test B pre/postemergence morningglory; format: in vivo, Ipomoea hederacea
How it was run: as §1

pigweed = assay: Test B pre/postemergence pigweed; format: in vivo, Amaranthus retroflexus
How it was run: as §1

rape = assay: Test B pre/postemergence rape; format: in vivo, Brassica napus
How it was run: as §1

soybean = assay: Test B pre/postemergence soybean; format: in vivo, Glycine max
How it was run: as §1

sugar beet = assay: Test B pre/postemergence sugar beet; format: in vivo, Beta vulgaris
How it was run: as §1

velvetleaf = assay: Test B pre/postemergence velvetleaf; format: in vivo, Abutilon theophrasti
How it was run: as §1

wheat = assay: Test B pre/postemergence wheat; format: in vivo, Triticum aestivum
How it was run: as §1

wild oat = assay: Test B pre/postemergence wild oat; format: in vivo, Avena fatua
How it was run: as §1

purple nutsedge = assay: Test B pre/postemergence purple nutsedge; format: in vivo, Cyperus rotundus
How it was run: as §1

rice = assay: Test B flood test rice; format: in vivo, Oryza sativa
How it was run: (§2)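 Read-out is a visual response score from 0 (no effect) to 10 (complete control), assigned by comparison with untreated controls. Treatment was applied at the 2-leaf stage, and plants stayed in the greenhouse for twelve to sixteen days before scoring.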

smallflower flatsedge = assay: Test B flood test smallflower flatsedge; format: in vivo, Cyperus difformis
How it was run: as §2

duck salad = assay: Test B flood test duck salad; format: in vivo, Heteranthera limosa
How it was run: as §2

bamyardgrass = assay: Test B flood test barnyardgrass; format: in vivo, Echinochloa crus-galli
How it was run: as §2

[1] = Postemergence, Rate 62 g/ha, scale of 0 to 10, 0 is no effect, 10 is complete control
[2] = Postemergence, Rate 125 g/ha, scale of 0 to 10 where 0 is no effect and 10 is complete control
[3] = Postemergence, Rate 250 g/ha, scale of 0 to 10, 0 is no effect, 10 is complete control
[4] = Postemergence, Rate 500 g/ha, scale of 0 to 10 where 0 is no effect and 10 is complete control
[5] = Preemergence, Rate 62 g/ha, scale 0 to 10 (0 no effect, 10 complete control)
[6] = Preemergence, Rate 125 g/ha, scale of 0 to 10 where 0 is no effect and 10 is complete control
[7] = Preemergence, Rate 500 g/ha, scale of 0 to 10 where 0 is no effect and 10 is complete control
[8] = Rate 62 g/ha, flood test species, Pre-emergence, visual evaluation after twelve to sixteen days
[9] = Rate 125 g/ha, under heading Pre-emergence, flood test species, visual evaluation after twelve to sixteen days
[10] = Rate 250 g/ha, Pre-emergence (flood test species), scale 0 to 10, 0 is no effect, 10 is complete control
[11] = Rate 500 g/ha, Pre-emergence section of Table B, 0 to 10 scale (0 no effect, 10 complete control)

SMILES: CC(C)N(C(=O)n1oc(=O)n(CC[N+](=O)[O-])c1=O)c1ccc(F)cc1F [Compound 591]
- Bedstraw plant response rating (bedstraw; Rate 62 g/ha, scale 0 to 10 (0 no effect, 10 complete control)): 0
- Bedstraw plant response rating (bedstraw; Rate 125 g/ha, scale of 0 to 10 where 0 is no effect and 10 is complete control): 0
- Blackgrass plant response rating (blackgrass; [1]): 0
- Plant response rating, Blackgrass (blackgrass; [2]): 0
- Blackgrass plant response rating (blackgrass; [3]): 0
- Plant response rating, Blackgrass (blackgrass; [4]): 0
- Blackgrass plant response rating (blackgrass; [5]): 0
- Blackgrass plant response rating (blackgrass; [6]): 0
- Blackgrass plant response rating (0 to 10 scale) (blackgrass; Preemergence, Rate 250 g/ha): 0
- Blackgrass plant response rating (blackgrass; [7]): 0
- B. signalgrass plant response rating (surinam grass; [1]): 0
- Plant response rating, B. signalgrass (surinam grass; [2]): 0
- B. signalgrass plant response rating (surinam grass; [3]): 0
- Plant response rating, B. signalgrass (surinam grass; [4]): 0
- B. signalgrass plant response rating (surinam grass; [5]): 0
- B. signalgrass plant response rating (surinam grass; [6]): 0
- B. signalgrass plant response rating (0 to 10 scale, 0 is no effect, 10 is complete control) (surinam grass; Preemergence, Rate 250 g/ha): 0
- B. signalgrass plant response rating (surinam grass; [7]): 0
- Cocklebur plant response rating (cocklebur; [1]): 0
- Plant response rating, Cocklebur (cocklebur; [2]): 0
- Cocklebur plant response rating (cocklebur; [3]): 0
- Plant response rating, Cocklebur (cocklebur; [4]): 0
- Cocklebur plant response rating (cocklebur; [5]): 0
- Cocklebur plant response rating (cocklebur; [6]): 0
- Cocklebur plant response rating (0 to 10 scale) (cocklebur; Preemergence, Rate 250 g/ha): 0
- Plant response rating, Cocklebur (cocklebur; [7]): 0
- Corn plant response rating (corn; [1]): 0
- Plant response rating, Corn (corn; [2]): 0
- Corn plant response rating (corn; [3]): 0
- Plant response rating, Corn (corn; [4]): 0
- Corn plant response rating (corn; [5]): 0
- Corn plant response rating (corn; [6]): 0
- Corn plant response rating (0 to 10 scale) (corn; Preemergence, Rate 250 g/ha): 0
- Plant response rating, Corn (corn; [7]): 0
- Crabgrass plant response rating (crabgrass; [1]): 0
- Plant response rating, Crabgrass (crabgrass; [2]): 0
- Crabgrass plant response rating (crabgrass; [3]): 0
- Plant response rating, Crabgrass (crabgrass; [4]): 0
- Crabgrass plant response rating (crabgrass; [5]): 0
- Crabgrass plant response rating (crabgrass; [6]): 0
- Plant response rating, Crabgrass (crabgrass; [7]): 0
- Giant foxtail plant response rating (giant foxtail; [1]): 0
- Plant response rating, Giant foxtail (giant foxtail; [2]): 0
- Giant foxtail plant response rating (giant foxtail; [3]): 0
- Plant response rating, Giant foxtail (giant foxtail; [4]): 0
- Giant foxtail plant response rating (giant foxtail; [5]): 0
- Giant foxtail plant response rating (giant foxtail; [6]): 0
- Plant response rating, Giant foxtail (giant foxtail; [7]): 0
- Morningglory plant response rating (morningglory; [1]): 0
- Plant response rating, Morningglory (morningglory; [2]): 0
- Morningglory plant response rating (morningglory; [3]): 2
- Plant response rating, Morningglory (morningglory; [4]): 3
- Morningglory plant response rating (morningglory; [5]): 0
- Morningglory plant response rating (morningglory; [6]): 0
- Plant response rating, Morningglory (morningglory; [7]): 0
- Plant response rating, Redroot pigweed (pigweed; [2]): 0
- Redroot pigweed plant response rating (pigweed; [3]): 0
- Plant response rating, Redroot pigweed (pigweed; [4]): 0
- Redroot pigweed plant response rating (pigweed; [5]): 0
- Redroot pigweed plant response rating (pigweed; [6]): 0
- Plant response rating, Redroot pigweed (pigweed; [7]): 0
- Rape plant response rating (rape; [1]): 0
- Plant response rating, Rape (rape; [2]): 0
- Rape plant response rating (rape; [3]): 0
- Plant response rating, Rape (rape; [4]): 0
- Rape plant response rating (rape; [5]): 0
- Rape plant response rating (rape; [6]): 0
- Plant response rating, Rape (rape; [7]): 0
- Plant response rating, Soybean (soybean; [2]): 1
- Soybean plant response rating (soybean; [3]): 2
- Plant response rating, Soybean (soybean; [4]): 2
- Soybean plant response rating (soybean; [5]): 0
- Soybean plant response rating (soybean; [6]): 0
- Plant response rating, Soybean (soybean; [7]): 0
- Plant response rating, Sugarbeets (sugar beet; [2]): 0
- Sugarbeets plant response rating (sugar beet; [3]): 0
- Plant response rating, Sugarbeets (sugar beet; [4]): 0
- Sugarbeets plant response rating (sugar beet; [5]): 0
- Sugarbeets plant response rating (sugar beet; [6]): 0
- Plant response rating, Sugarbeets (sugar beet; [7]): 0
- Plant response rating, Velvetleaf (velvetleaf; [2]): 0
- Velvetleaf plant response rating (velvetleaf; [3]): 0
- Plant response rating, Velvetleaf (velvetleaf; [4]): 0
- Velvetleaf plant response rating (velvetleaf; [5]): 0
- Velvetleaf plant response rating (velvetleaf; [6]): 0
- Plant response rating, Velvetleaf (velvetleaf; [7]): 0
- Plant response rating, Wheat (wheat; [2]): 0
- Wheat plant response rating (wheat; [3]): 0
- Plant response rating, Wheat (wheat; [4]): 0
- Wheat plant response rating (wheat; [5]): 0
- Wheat plant response rating (wheat; [6]): 0
- Plant response rating, Wheat (wheat; [7]): 0
- Plant response rating, Wild oats (wild oat; [2]): 0
- Wild oats plant response rating (wild oat; [3]): 0
- Plant response rating, Wild oats (wild oat; [4]): 0
- Wild oats plant response rating (wild oat; [5]): 0
- Wild oats plant response rating (wild oat; [6]): 0
- Plant response rating, Wild oats (wild oat; [7]): 0
- Nutsedge plant response rating (purple nutsedge; [1]): 0
- Plant response rating, Nutsedge (purple nutsedge; [2]): 0
- Nutsedge plant response rating (purple nutsedge; [3]): 0
- Plant response rating, Nutsedge (purple nutsedge; [4]): 0
- Nutsedge plant response rating (purple nutsedge; [5]): 0
- Nutsedge plant response rating (purple nutsedge; [6]): 0
- Plant response rating, Nutsedge (purple nutsedge; [7]): 0
- Plant response rating, Rice (0 to 10 scale, 0 is no effect, 10 is complete control) (rice; [8]): 0
- Rice plant response rating (0 to 10 scale, 0 is no effect, 10 is complete control) (rice; [9]): 0
- Rice plant response rating (rice; [10]): 0
- Rice plant response rating (rice; [11]): 0
- Plant response rating, S. Flatsedge (0 to 10 scale, 0 is no effect, 10 is complete control) (smallflower flatsedge; [8]): 0
- S. Flatsedge plant response rating (0 to 10 scale, 0 is no effect, 10 is complete control) (smallflower flatsedge; [9]): 0
- S. Flatsedge plant response rating (smallflower flatsedge; [10]): 0
- S. Flatsedge plant response rating (smallflower flatsedge; [11]): 0
- Plant response rating, Ducksalad (0 to 10 scale, 0 is no effect, 10 is complete control) (duck salad; [8]): 0
- Ducksalad plant response rating (0 to 10 scale, 0 is no effect, 10 is complete control) (duck salad; [9]): 0
- Ducksalad plant response rating (duck salad; [10]): 0
- Ducksalad plant response rating (duck salad; [11]): 0
- Plant response rating, Barnyardgrass (0 to 10 scale, 0 is no effect, 10 is complete control) (bamyardgrass; [8]): 0
- Barnyardgrass plant response rating (0 to 10 scale, 0 is no effect, 10 is complete control) (bamyardgrass; [9]): 0
- Barnyardgrass plant response rating (bamyardgrass; [10]): 0
- Barnyardgrass plant response rating (bamyardgrass; [11]): 0
